Data from patent publication US20060247439A1, “Mchir antagonists” (AstraZeneca AB, priority 2002, published 2006).

target: T1, human Melanin concentrating hormone receptor 1 (MCH1r) (Homo sapiens, UniProt Q99705); experiment: MCH1 Receptor Radioligand Binding; conditions: membranes from HEK293 cells stably expressing human MCH1r; radioligand 125I-MCH
T1 construct: expressed in transfected cells; membranes)
Procedure: MCH1 Receptor Radioligand Binding.
Assays were performed on membranes prepared from HEK293 cells stably expressing the human Melanin concentrating hormone receptor 1 (MCH1r) (Lembo et al. Nature Cell Biol 1 267-271). Assays were performed in a 96-well plate format in a final reaction volume of 200 μl per well. Each well contained 6,1 μg of membrane proteins diluted in binding buffer (50 mM Tris, 3 mM MgCl2, 0.05% bovine serum albumin (BSA) and the radioligand ^125I-MCH (IM344 Amersham) was added to give 10 000 cpm (counts per Minute) per well Each well contained 2 μl of the appropriate concentration of competitive antagonist prepared in DMSO and left to stand at room temperature for 60 minutes. Non-specific binding was determined as that remaining following incubation with […] MCH (Melanin concentrating hormone, H-1482 Bachem). The reaction was terminated by transfer of the reaction to GF/A filters using a Micro96 Harvester (Skatron Instruments, Norway). Filters were washed with assay buffer; Radioligand retained on the filters was quantified using a1450 Microbeta TRILUX (Wallac, Finland).
Non-specific binding was subtracted from all values determined. Maximum binding was that determined in the absence of any competitor following subtraction of the value determined for non-specific binding. Binding of compounds at various concentrations was plotted according to the equation y=A+(B−A)/1+((C/x)ˆD))) and IC50 estimated where […]
A is the bottom plateau of the curve i.e. the final minimum y value
B is the top of the plateau of the curve i.e. the final maximum y value
C is the x value at the middle of the curve. This represents the log EC50 value when A+B=100 […]
x is the original known x values. y is the original known y values.

T1 sequence (Q99705 whole entry): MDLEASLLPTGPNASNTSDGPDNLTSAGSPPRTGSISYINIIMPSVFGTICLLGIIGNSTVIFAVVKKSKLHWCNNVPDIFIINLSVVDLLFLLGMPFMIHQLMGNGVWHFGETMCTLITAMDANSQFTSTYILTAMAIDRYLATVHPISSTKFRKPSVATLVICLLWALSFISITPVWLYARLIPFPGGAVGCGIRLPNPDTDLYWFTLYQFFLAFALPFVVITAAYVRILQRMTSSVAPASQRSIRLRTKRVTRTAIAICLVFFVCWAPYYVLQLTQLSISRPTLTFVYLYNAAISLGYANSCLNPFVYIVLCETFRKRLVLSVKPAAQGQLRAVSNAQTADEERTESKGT

Row | IC50 [nM] | Compound
1 | 400 | Clc1ccc(CNC2CCC(Nc3ccc4ccccc4n3)CC2)cc1Cl (mixture of isomers) [Example 29, N-[(3,4-Dichlorophenyl)methyl]-N′-(2-quinolinyl)-1,4-cyclohexanediamine]
2 | 560 | COc1ccc2nc(NC3CCCC(NCc4cc5ccccc5o4)C3)cc(C)c2c1 (mixture of isomers) [Example 53, N-(1-benzofuran-2-ylmethyl)-N′-(6-methoxy-4-methylquinolin-2-yl)cyclohexane-1,3-diamine]
3 | 10 | COc1ccc2nc(NCCCNCc3ccsc3)cc(C)c2c1 [Example 2, N-(6-Methoxy-4-methyl-2-quinolinyl)-N′-(3-thienylmethyl)-1,3-propanediamine]
